Data from patent publication US12685744B2, “Anti-fungal compositions and methods for using same” (The Research Foundation for The State University of New York, priority 2019, dated 2026).

Tests used:
[1] = system: C. albicans strain SC5314 (Wild Type); experiment: Growth of C. albicans with ManSIFG and 0.2M CaCl2, cell count by hemocytometer; type: cell-based, Candida albicans; details: 0.2M CaCl2 alone
Protocol: This signaling pathway is considered to regulate synthesis of chitin, an important carbohydrate which is part of the cell wall and septum, which is formed during cell division. C. albicans strain SC5314 (wild type) was cultured from frozen stock in Yeast Nitrogen Base media (YNB) with 2% glucose and grown overnight at 30° C. with shaking at 225 rpm. Cell concentration was determined by hemocytometer. […] […] (62.5 μg/ml) was added to test cultures but not to control cultures. The experiment was done in triplicates. The culture tubes were placed on a nutator inside a 30° C. incubator and grown for 24 hours. Time points were taken at 6, 12, and 24 hours. Cell concentration was monitored by hemocytometer at 6, 12, and 24-hour time points. Statistical analysis was done using two-tailed Student's t-Test.

[2] = system: C. albicans wild type strain (SC5314); experiment: Checkerboard synergy assay / MIC analysis, OD600; type: cell-based, Candida albicans
Protocol: (§1) The C. albicans wild type strain (SC5314) was cultured from frozen stock in Yeast Peptone Dextrose (YPD) and grown overnight at 30° C. with shaking at 225 rpm. Cell concentration was determined by hemocytometer and used to adjust the inoculum to 2×10^3 cells/ml in fresh YPD, which is 2× the desired final concentration. 50 ul of the inoculum was added to each well for a final culture volume of 100 ul. The final cell concentration was 1×10^3 cells/ml. The plate was sealed with plastic film and placed in a BioTek Synergy HT plate reader for 24 hours at 37° C. At each time point, the plate was shaken for 10 seconds prior to each OD600 reading.

[3] = system: wildtype C. albicans strain SC5314; experiment: Growth of C. albicans in YNB, cell count by hemocytometer; type: cell-based, Candida albicans
Protocol: (§2) The wildtype C. albicans strain SC5314 was cultured from frozen stock in Yeast Nitrogen Base (YNB) media with 2% glucose and grown overnight at 30° C. with shaking at 225 rpm as described previously (Chinnici et al., 2019). Cell concentration of the overnight culture was determined by hemocytometer. This was used to inoculate fresh cultures with a final starting concentration of 5×10^5 cells/ml in fresh YNB contain either no treatment (control) or various concentrations (31.25, 62.5, or 125 μg/ml) of the mannose disaccharide inhibitor. The cultures were run in duplicates and incubated at 30° C. on a nutator. Cell concentration was analyzed by counting on hemocytometer at 10, 14, 18, and 24-hour time points. Statistical analysis was done using two-tailed Student's t-Test.
as §2, with “previously.” for “previously (Chinnici et al., 2019).”, “62.5 μg/ml” for “various concentrations (31.25, 62.5, or 125 μg/ml)”, “D-Mannose.” for “the mannose disaccharide inhibitor.”

[4] = system: C. albicans strain SC5314 (Wild Type); experiment: Germ tube / hypha formation of C. albicans induced by 20% FBS, count by hemocytometer; type: cell-based, Candida albicans; details: 62.5 μg/ml, 37° C., significantly (FIG. 3)
[5] = system: Trychophyton rubrum (ATCC-MYA-4607); experiment: MIC testing against toe nail fungus; type: cell-based, Trichophyton rubrum; details: various concentrations, SDB, 25° C., 6 days (FIG. 10)
Protocol: Effect […] on other fungal cells. Trichophyton rubrum is the fungal pathogen that causes onychomycosis or toe nail fungus. […] The experiment was performed in triplicates. […] A 50 ul inoculum was added to each well for a final culture volume of 100 ul. […] The plate was cultured for 6 days at 25° C. and then imaged using an iPhone camera.

[6] = system: Candida parapsilosis (ATCC-22019) wild type strain; experiment: Antifungal activity against C. parapsilosis; type: cell-based; details: at very low concentrations (FIG. 12)
Protocol: as §1, with “ManSIFG MIC analysis for Candida albicans and effects of CaCl2. A checkerboard synergy assay was used to test ManSIFG and CaCl2) each by themselves and in various combinations of each other. Drug concentrations to be tested were prepared 4× concentrated and dispensed into a sterile 96-well culture plate. 25 ul of each ManSIFG dilution was dispensed in each column, such that concentrations increased along the x-axis of the plate. 25 ul of each CaCl2 dilution was dispensed in each row, such that concentrations increased along the y-axis of the plate. The C.” for “The C.”
Effect of ManSIFG on additional Candida species. Other Candida species were tested. Candida parapsilosis (ATCC-22019) wild type strain was used. Methods are same as described above. […]

[7] = system: Candida krusei, (ATCC-6258) wild type strain; experiment: Antifungal activity against C. krusei; type: cell-based; details: even at very low concentrations (FIG. 13)
[8] = system: Candida glabrata (ATCC-2001) wild type strain; experiment: Antifungal activity against C. glabrata; type: cell-based; details: FIG. 14
[9] = system: Candida tropicalis (ATCC-750) wild type strain; experiment: Antifungal activity against C. tropicalis; type: cell-based; details: FIG. 15

[Ca+2].[Cl-].[Cl-] [CaCl2, Calcium chloride]
growth of C. albicans as compared to control cultures ([1]; 12 hours (FIG. 4A)): significantly inhibit
growth of C. albicans as compared to control cultures ([1]; 24 hours (FIG. 4B)): significantly inhibit
antifungal effect of CaCl2 by itself ([2]; very high concentrations (FIG. 9)): has an antifungal effect

O=C[C@@H](O)[C@@H](O)[C@H](O)[C@H](O)CO [D-Mannose, reference compound]
growth of C. albicans wild type as compared to control cultures ([3]; D-Mannose 62.5 μg/ml, 10, 14, 18 and 24-hour time points): not inhibited

OC[C@H]1O[C@H](SC[C@H]2CNC[C@@H](O)[C@@H]2O)[C@@H](O)[C@@H](O)[C@@H]1O [ManSIFG, (2R,3S,4S,5S,6R)-2-((((3S,4R,5R)-4,5-dihydroxypiperidin-3-yl)methyl)thio)-6-(hydroxymethyl)tetrahydro-2H-pyran-3,4,5-triol]
growth of C. albicans wild type as compared to control cultures ([3]; 62.5 μg/ml, 10 hours, significantly (FIG. 2)): inhibited
growth of C. albicans, difference between control and inhibitor cultures ([3]; 62.5 μg/ml, later time points (14, 18, 24 hours)): no significant difference
formation of germ tubes as compared to control cultures ([4]; 12 hours): inhibited
formation of germ tubes as compared to control cultures ([4]; 24 hours): inhibited
MIC ([2]; Candida albicans, SC5314, YPD, 37° C., 24 hours, OD600 (FIG. 7)): 31.2 to 62.5 µg/mL
effect of addition of CaCl2 on antifungal activity of ManSIFG ([2]; ManSIFG 7.81 μg/ml plus 100 mg/ml CaCl2 vs CaCl2 alone (FIG. 8)): improves the antifungal activity
inhibitory effect against Trychophoton rubrum [5]: no inhibitory effect
antifungal activity against Candida parapsilosis [6]: has antifungal activity
antifungal activity against Candida krucei [7]: has antifungal activity
antifungal activity against Candida glabrata [8]: has antifungal activity
antifungal activity against Candida tropicalis [9]: has antifungal activity
